Where “and” joins values, the source holds several entries; their conditions need not be identical. Equal entries are not always repeated.
System: dogs subjected to partial medial meniscectomy
Assay: Dog partial medial meniscectomy study, microscopic cartilage degeneration scores
Format: in vivo
Design: key to Total Joint CD Score: sum of tibial and femoral degeneration scores (1=minimal…3=moderate)
Excerpt: The proximal end of the left tibia and the distal end of the left femur were removed using a hacksaw and collected into 10% neutral buffered formalin. Bones were allowed to fix for 5 days and then the tissues were placed in formic acid decalcifier (5-20%). After decalcification, the surface area at risk for lesion development of the tibia (medial and lateral plateaus) and femur (medial and lateral condyles) was divided into 3 slabs (anterior to posterior) approximately 2-4 mm thick for processing, embedding, sectioning (8 µm) and staining (Toluidine Blue). The lesions are in reasonably consistent locations in all animals, therefore, the same surfaces and area were consistently embedded for all animals. Blocks containing tissue were numbered 1-3 with 1 being the most anterior piece. In all cases, the anterior aspect of the tissue was embedded down in the cassette for sectioning.
Compartmentalized lesions on medial tibia and medial femur (cartilage degeneration and osteophytes) were scored for each of the 3 (anterior to posterior) sections using the following system:
1=minimal degeneration, chondrocyte and proteoglycan loss with or without fibrillation involving the superficial zone or extending into the upper 10% of the cartilage thickness or at least 5% but not more than 10% overall total proteoglycan and cell loss in the zone if lesion is focal and deeper in some areas. Deeper and more extensive proteoglycan loss only without any evidence of chondrocyte loss and collagen damage is also given a score of 1 as this is a minor and reversible change
2=mild degeneration, chondrocyte and proteoglycan loss with fibrillation involving mainly the upper 11-25% of cartilage thickness, fibrillation generally superficial (upper 10%) while chondrocyte and proteoglycan loss extend into approximately 11-25% of the cartilage depth, or 11-25% overall chondrocyte and proteoglycan loss in the zone if lesion is focal and deeper in some areas. Deeper areas of proteoglycan loss only, without chondrocyte loss or collagen disruption (reversible changes) may be present
3=moderate degeneration, chondrocyte and proteoglycan loss with fibrillation extending well into the midzone and generally affecting 1/2 (50%) of the total cartilage thickness, fibrillation/collagen damage generally extends into upper 25% while chondrocyte and proteoglycan loss extend through 50% thickness, or 26-50% overall chondrocyte and proteoglycan loss in the zone if lesion is focal and deeper in some areas. Deeper areas of proteoglycan loss only, without chondrocyte loss or collagen disruption (reversible changes) may be present
4=marked degeneration, chondrocyte and proteoglycan loss with fibrillation extending through the mid zone through 3/4 f the depth (51-75% of cartilage thickness) but without complete (to the tidemark) loss of chondrocytes or proteoglycan, fibrillation/collagen damage generally extend through the mid zone (50% thickness) but deep zone collagen remains intact, or 51-75% overall chondrocyte and proteoglycan loss in the zone if lesion is focal and deeper in some areas. Deeper areas of proteoglycan loss only, without chondrocyte loss or collagen disruption (reversible changes) may be present
5=severe degeneration, chondrocyte and proteoglycan loss to near tidemark (76-100% of depth) with slightly less severe collagen damage or 76-100% overall chondrocyte and proteoglycan loss in the zone.
Each medial tibial plateau and medial femoral condyle anterior to posterior section was further divided visually with an ocular micrometer into fourths and numbered 1,2,3,4 with 1 being the outside and 4 being the inside quadrant. A mean score for the four levels was calculated. In addition, means of the 3 sections for each quadrant were determined in order to convey lesion severity in various axial to abaxial locations. Overall tibial and femoral values were summed for a total joint cartilage degeneration score.

[1] = individual dogs of MIV-711 group
[2] = individual dogs of MIV-711 group, score=depth (1-5), mean of 4 quadrants

SMILES: C#C[C@@H]1CN(C(=O)[C@H](CC(C)C)NC(=O)c2ccc(-c3nc(N4CCN(C)CC4)sc3F)cc2)[C@@H]2C(=O)CO[C@H]12 [MIV-711]
- Femur Cartilage Degeneration Score Level 1 (MIV-711 group mean): 0.57
- Femur Cartilage Degeneration Score Level 2 (MIV-711 group mean): 0.65
- Femur Cartilage Degeneration Score Level 3 (MIV-711 group mean): 0.77
- Femur Cartilage Degeneration Score Mean (MIV-711 group mean): 0.66
- Femur Cartilage Degeneration Score Zone 1 (MIV-711 group mean): 1.16
- Femur Cartilage Degeneration Score Zone 2 (MIV-711 group mean): 1.09
- Femur Cartilage Degeneration Score Zone 3 (MIV-711 group mean): 0.33
- Femur Cartilage Degeneration Score Zone 4 (MIV-711 group mean): 0.07
- Tibia Cartilage Degeneration Score Level 1 (MIV-711 group mean): 0.60
- Tibia Cartilage Degeneration Score Level 2 (MIV-711 group mean): 1.22
- Tibia Cartilage Degeneration Score Level 3 (MIV-711 group mean): 0.92
- Tibia Cartilage Degeneration Score Mean (MIV-711 group mean): 0.91
- Tibia Cartilage Degeneration Score Zone 1 (MIV-711 group mean): 0.33
- Tibia Cartilage Degeneration Score Zone 2 (MIV-711 group mean): 1.76
- Tibia Cartilage Degeneration Score Zone 3 (MIV-711 group mean): 1.02
- Tibia Cartilage Degeneration Score Zone 4 (MIV-711 group mean): 0.53
- Total Joint CD Score (MIV-711 group mean): 1.57
- % inhibition, Femur Cartilage Degeneration Score Level 1 (MIV-711 group vs vehicle): 13%
- % inhibition, Femur Cartilage Degeneration Score Level 2 (MIV-711 group vs vehicle): 0%
- % inhibition, Femur Cartilage Degeneration Score Level 3 (MIV-711 group vs vehicle): 8%
- % inhibition, Femur Cartilage Degeneration Score Mean (MIV-711 group vs vehicle): 7%
- % inhibition, Femur Cartilage Degeneration Score Zone 1 (MIV-711 group vs vehicle): -6%
- % inhibition, Femur Cartilage Degeneration Score Zone 2 (MIV-711 group vs vehicle): 6%
- % inhibition, Femur Cartilage Degeneration Score Zone 3 (MIV-711 group vs vehicle): 32%
- % inhibition, Femur Cartilage Degeneration Score Zone 4 (MIV-711 group vs vehicle): 40%
- % inhibition, Tibia Cartilage Degeneration Score Level 1 (MIV-711 group vs vehicle): 41%
- % inhibition, Tibia Cartilage Degeneration Score Level 2 (MIV-711 group vs vehicle): 9%
- % inhibition, Tibia Cartilage Degeneration Score Level 3 (MIV-711 group vs vehicle): -38%
- % inhibition, Tibia Cartilage Degeneration Score Mean (MIV-711 group vs vehicle): 9%
- % inhibition, Tibia Cartilage Degeneration Score Zone 1 (MIV-711 group vs vehicle): 48%
- % inhibition, Tibia Cartilage Degeneration Score Zone 2 (MIV-711 group vs vehicle): 0%
- % inhibition, Tibia Cartilage Degeneration Score Zone 3 (MIV-711 group vs vehicle): 8%
- % inhibition, Tibia Cartilage Degeneration Score Zone 4 (MIV-711 group vs vehicle): -4%
- % inhibition, Total Joint CD Score (MIV-711 group vs vehicle): 8%
- decrease in cartilage degeneration scores in level 1 (anterior) of the tibia (dog, 30 µmol/kg vs vehicle, statistically significant): 41%
- Femur Cartilage Degeneration Score Zone 1 [1]: 1.00 and 0.33 and 2.00 and 1.33 and 0.67
- Femur Cartilage Degeneration Score Zone 2 [1]: 1.33 and 1.67 and 0.00 and 2.00 and 1.00 and 0.33 and 2.33
- Femur Cartilage Degeneration Score Zone 3 [1]: 0.33 and 0.00 and 1.33 and 1.67
- Femur Cartilage Degeneration Score Zone 4 [1]: 0.00 and 0.33
- Tibia Cartilage Degeneration Score Zone 1 [1]: 0.33 and 0.67 and 0.00 and 1.00
- Tibia Cartilage Degeneration Score Zone 2 [1]: 1.67 and 1.33 and 2.00 and 2.33
- Tibia Cartilage Degeneration Score Zone 3 [1]: 1.33 and 1.00 and 1.67 and 0.67 and 0.33
- Tibia Cartilage Degeneration Score Zone 4 [1]: 0.67 and 0.33 and 0.00 and 1.00
- Total Joint CD Score [1]: 1.08 and 1.67 and 1.75 and 0.75 and 2.42 and 1.33 and 1.50 and 1.25 and 2.00 and 1.83 and 3.00
- Femur Cartilage Degeneration Score Level 1 [2]: 0.50 and 0.25 and 0.75 and 1.00
- Femur Cartilage Degeneration Score Level 2 [2]: 0.50 and 1.00 and 0.00 and 1.75 and 0.75 and 0.25
- Femur Cartilage Degeneration Score Level 3 [2]: 0.50 and 1.00 and 0.00 and 1.50 and 0.25 and 1.25 and 0.75 and 2.00
- Femur Cartilage Degeneration Score Mean [2]: 0.50 and 0.67 and 0.83 and 0.08 and 1.33 and 0.58 and 0.33 and 0.25 and 1.58
- Tibia Cartilage Degeneration Score Level 1 [2]: 0.25 and 0.00 and 0.50 and 1.25 and 0.75 and 1.00 and 1.50
- Tibia Cartilage Degeneration Score Level 2 [2]: 1.00 and 1.25 and 1.75 and 1.50 and 0.50
- Tibia Cartilage Degeneration Score Level 3 [2]: 0.50 and 1.50 and 1.00 and 1.25 and 0.75 and 0.00
- Tibia Cartilage Degeneration Score Mean [2]: 0.58 and 1.00 and 0.92 and 0.67 and 1.08 and 0.75 and 1.17 and 0.42 and 1.42
